Values of other authors, collected in patent US11464736B2, “Thermally gelling drug formulations” (UNM Rainforest Innovations, priority 2019, dated 2022).

Tests used:
[1] = biological target: CYP3A4 metabolizing enzyme (Homo sapiens, UniProt P08684)
[2] = not given; remark: listed apart in the source

CYP3A4 metabolizing enzyme, sequence (P08684 whole entry): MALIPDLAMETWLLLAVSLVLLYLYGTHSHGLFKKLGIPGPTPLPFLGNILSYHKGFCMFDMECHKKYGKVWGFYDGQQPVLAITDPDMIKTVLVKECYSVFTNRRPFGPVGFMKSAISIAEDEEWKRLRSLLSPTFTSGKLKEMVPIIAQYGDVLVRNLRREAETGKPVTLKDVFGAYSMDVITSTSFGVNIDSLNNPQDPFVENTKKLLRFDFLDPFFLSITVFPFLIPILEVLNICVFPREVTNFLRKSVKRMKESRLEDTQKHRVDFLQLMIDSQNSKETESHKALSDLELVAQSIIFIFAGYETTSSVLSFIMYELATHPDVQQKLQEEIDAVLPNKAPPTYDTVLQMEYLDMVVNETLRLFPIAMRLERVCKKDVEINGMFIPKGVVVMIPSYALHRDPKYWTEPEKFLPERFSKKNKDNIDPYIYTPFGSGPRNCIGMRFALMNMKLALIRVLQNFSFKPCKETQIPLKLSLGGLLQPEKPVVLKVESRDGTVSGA

inhibition of CYP3A4 [1] | increase of oral bioavailability when taken with food | log P [2] | Molecule
competitive inhibitors |  |  | CC(=O)C(C)n1ncn(-c2ccc(N3CCN(c4ccc(OC[C@H]5CO[C@](Cn6cncn6)(c6ccc(Cl)cc6Cl)O5)cc4)CC3)cc2)c1=O (mixture of isomers) [keto-itraconazole]
 | 33-37% | 5.7-6.2 | CCC(C)n1ncn(-c2ccc(N3CCN(c4ccc(OCC5COC(Cn6cncn6)(c6ccc(Cl)cc6Cl)O5)cc4)CC3)cc2)c1=O (centres unmarked) [ITZ, Itraconazole]
competitive inhibitors |  |  | O=c1[nH]ncn1-c1ccc(N2CCN(c3ccc(OCC4COC(Cn5cncn5)(c5ccc(Cl)cc5Cl)O4)cc3)CC2)cc1 (centres unmarked) [N-desalkyl-itraconazole]

Molecule | inhibition of CYP3A4 [1] | increase of oral bioavailability when taken with food | log P [2]
hydroxy-itraconazole | competitive inhibitors |  | 
